# From paper PMC8576438, “Identification and Functional Analysis of G Protein-Coupled Receptors in 20-Hydroxyecdysone Signaling From the Helicoverpa armigera Genome” (Frontiers in Cell and Developmental Biology, 2021)
# Test system: T1, prolactin-releasing peptide receptor (PRRPR)
# T1 construct: full ORF (XP_021184170.1) fused to GFP (PRRPR-GFP), in membranes of overexpressing HaEpi cells
# Experiment: saturation binding to membranes of PRRPR-GFP-overexpressing HaEpi cells, bound […] quantified by enzyme immunoassay ([…]-EIA)
# Set-up: species or system Helicoverpa armigera
smiles,measurement,value
"CC(C)(O)CC[C@@H](O)[C@](C)(O)[C@H]1CC[C@@]2(O)C3=CC(=O)[C@@H]4C[C@@H](O)[C@@H](O)C[C@]4(C)[C@H]3CC[C@]12C [20E, 20-hydroxyecdysone]",Kd,12.8 ± 2.19 nM
